Test results published in US6423689B1, “Peptidyl calcium channel blockers” (Warner-Lambert Company, priority 1997, dated 2002).
Read-outs that look alike come from different tables or passages of the source.

How the values were obtained:
[1] = target: T1, N-type Ca2+ channels in IMR-32 cells (Homo sapiens, UniProt Q00975); assay: Inhibition of N-type calcium flux in IMR-32 cells (Indo-1 fluorescence, nitrendipine present); assay type: cell-based; settings: for inhibition at 1 µM / inhibition at 10 µM: IMR-32; for IC50: IMR-32 cells, 5 μM nitrendipine, K+ depolarization
T1 construct: host or cells: IMR-32 cells, differentiated with dibutyryl cAMP and bromodeoxyuridine
How it was run: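 Differentiated IMR-32 cells (7–13 days) were loaded with 5 μM Indo-1 AM, preincubated with compound for 10 min at 30° C, and depolarized with KCl/CaCl2 stimulation solution, with 5 μM nitrendipine blocking L-channels. Peak-minus-basal 400/490 nm emission ratio was plotted against drug concentration, and IC50 came from four-parameter logistic fits.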

[2] = target: T2, N-type Ca2+ channels in superior cervical ganglion (SCG) neurons (Rattus norvegicus, UniProt Q02294); assay: Whole-cell voltage clamp, N-type Ca2+ current in SCG neurons; assay type: cell-based; settings: for IC50: read-out: Inhibition of N-type Ca2+ Current IC50
T2 construct: from tissue
T2 sequence (Q02294 whole entry): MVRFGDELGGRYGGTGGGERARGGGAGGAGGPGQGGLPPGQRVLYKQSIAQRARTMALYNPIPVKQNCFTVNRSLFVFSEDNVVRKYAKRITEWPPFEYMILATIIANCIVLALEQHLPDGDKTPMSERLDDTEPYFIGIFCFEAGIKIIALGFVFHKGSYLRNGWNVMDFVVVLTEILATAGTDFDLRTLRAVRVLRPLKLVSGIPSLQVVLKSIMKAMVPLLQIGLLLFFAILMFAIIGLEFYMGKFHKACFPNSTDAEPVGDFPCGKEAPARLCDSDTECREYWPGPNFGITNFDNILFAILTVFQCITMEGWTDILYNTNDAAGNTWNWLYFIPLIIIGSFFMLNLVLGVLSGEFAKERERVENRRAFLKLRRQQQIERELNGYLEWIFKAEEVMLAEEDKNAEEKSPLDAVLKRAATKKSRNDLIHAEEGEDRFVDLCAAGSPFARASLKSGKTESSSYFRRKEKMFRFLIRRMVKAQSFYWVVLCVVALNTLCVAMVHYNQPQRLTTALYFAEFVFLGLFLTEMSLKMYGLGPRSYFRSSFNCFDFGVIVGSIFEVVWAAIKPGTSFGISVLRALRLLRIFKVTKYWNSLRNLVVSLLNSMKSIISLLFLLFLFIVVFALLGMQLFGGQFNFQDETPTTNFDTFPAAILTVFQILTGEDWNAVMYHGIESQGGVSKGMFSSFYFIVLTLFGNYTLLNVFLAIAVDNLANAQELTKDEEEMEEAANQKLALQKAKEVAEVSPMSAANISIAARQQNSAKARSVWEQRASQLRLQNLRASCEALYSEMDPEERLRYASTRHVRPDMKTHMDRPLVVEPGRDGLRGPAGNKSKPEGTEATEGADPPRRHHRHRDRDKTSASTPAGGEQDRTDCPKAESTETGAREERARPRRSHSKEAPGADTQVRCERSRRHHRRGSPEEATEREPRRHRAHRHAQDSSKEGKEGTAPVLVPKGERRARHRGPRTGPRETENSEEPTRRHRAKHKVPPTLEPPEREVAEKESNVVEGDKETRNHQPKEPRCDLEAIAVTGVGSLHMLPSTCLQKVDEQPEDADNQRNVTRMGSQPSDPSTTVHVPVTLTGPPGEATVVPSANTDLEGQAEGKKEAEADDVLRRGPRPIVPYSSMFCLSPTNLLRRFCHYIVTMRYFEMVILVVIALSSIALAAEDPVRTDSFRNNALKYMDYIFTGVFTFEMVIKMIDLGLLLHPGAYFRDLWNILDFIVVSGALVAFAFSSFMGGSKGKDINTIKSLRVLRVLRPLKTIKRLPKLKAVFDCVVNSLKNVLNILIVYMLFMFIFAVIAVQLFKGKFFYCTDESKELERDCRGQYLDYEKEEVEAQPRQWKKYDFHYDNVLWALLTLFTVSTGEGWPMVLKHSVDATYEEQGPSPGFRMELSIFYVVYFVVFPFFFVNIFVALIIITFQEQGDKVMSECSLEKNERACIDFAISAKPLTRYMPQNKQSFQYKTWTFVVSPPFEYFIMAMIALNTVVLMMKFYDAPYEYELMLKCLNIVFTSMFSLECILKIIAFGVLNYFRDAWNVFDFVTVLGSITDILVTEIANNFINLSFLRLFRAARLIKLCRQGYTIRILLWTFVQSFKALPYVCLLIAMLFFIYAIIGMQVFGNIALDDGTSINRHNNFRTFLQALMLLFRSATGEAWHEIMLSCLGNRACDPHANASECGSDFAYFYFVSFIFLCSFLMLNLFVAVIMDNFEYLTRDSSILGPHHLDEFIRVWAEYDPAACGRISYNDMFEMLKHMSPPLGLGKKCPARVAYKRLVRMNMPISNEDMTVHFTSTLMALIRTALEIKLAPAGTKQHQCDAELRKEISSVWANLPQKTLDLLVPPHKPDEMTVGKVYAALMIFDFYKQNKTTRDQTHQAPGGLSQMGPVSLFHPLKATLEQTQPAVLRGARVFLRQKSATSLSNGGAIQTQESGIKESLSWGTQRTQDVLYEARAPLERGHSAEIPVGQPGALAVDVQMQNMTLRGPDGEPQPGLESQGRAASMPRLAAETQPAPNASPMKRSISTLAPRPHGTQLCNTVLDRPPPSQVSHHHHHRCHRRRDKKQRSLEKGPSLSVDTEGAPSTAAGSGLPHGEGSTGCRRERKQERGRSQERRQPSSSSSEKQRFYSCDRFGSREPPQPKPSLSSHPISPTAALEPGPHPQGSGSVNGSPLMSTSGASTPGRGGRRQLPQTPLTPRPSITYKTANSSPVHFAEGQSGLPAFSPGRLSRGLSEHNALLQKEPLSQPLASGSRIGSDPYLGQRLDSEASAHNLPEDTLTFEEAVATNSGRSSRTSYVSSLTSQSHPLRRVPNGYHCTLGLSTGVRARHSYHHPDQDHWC
T2 sequence (P54290 25-944 partner limits assumed): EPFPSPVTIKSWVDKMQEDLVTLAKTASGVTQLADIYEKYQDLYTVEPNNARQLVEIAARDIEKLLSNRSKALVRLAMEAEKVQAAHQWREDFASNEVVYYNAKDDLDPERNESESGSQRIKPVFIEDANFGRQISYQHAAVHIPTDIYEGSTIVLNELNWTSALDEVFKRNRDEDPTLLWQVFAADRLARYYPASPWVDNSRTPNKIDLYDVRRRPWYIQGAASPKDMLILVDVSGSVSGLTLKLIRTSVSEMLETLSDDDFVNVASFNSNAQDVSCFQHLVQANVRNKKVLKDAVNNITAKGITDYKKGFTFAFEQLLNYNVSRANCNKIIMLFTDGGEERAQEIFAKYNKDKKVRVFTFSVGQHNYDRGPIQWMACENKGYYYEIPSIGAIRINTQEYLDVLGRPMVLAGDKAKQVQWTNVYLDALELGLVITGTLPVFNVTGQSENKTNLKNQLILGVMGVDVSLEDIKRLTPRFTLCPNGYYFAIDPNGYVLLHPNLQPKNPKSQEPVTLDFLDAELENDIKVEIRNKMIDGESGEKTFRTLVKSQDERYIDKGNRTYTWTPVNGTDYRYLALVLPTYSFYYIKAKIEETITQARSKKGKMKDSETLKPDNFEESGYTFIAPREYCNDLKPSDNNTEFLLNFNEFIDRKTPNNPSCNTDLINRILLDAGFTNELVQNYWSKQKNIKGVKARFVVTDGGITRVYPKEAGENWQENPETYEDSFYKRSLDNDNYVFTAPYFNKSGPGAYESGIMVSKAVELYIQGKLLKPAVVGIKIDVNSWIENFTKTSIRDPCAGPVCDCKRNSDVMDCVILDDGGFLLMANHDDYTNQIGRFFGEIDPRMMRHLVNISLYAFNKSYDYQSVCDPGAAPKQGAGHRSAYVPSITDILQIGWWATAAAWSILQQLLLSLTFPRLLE
T2 sequence (P54290 945-1091 partner limits assumed): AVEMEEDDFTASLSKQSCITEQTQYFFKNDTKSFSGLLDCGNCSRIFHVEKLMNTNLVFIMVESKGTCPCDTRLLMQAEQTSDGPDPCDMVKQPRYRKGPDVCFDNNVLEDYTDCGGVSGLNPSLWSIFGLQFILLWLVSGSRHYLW
T2 sequence (P54287 whole entry partner): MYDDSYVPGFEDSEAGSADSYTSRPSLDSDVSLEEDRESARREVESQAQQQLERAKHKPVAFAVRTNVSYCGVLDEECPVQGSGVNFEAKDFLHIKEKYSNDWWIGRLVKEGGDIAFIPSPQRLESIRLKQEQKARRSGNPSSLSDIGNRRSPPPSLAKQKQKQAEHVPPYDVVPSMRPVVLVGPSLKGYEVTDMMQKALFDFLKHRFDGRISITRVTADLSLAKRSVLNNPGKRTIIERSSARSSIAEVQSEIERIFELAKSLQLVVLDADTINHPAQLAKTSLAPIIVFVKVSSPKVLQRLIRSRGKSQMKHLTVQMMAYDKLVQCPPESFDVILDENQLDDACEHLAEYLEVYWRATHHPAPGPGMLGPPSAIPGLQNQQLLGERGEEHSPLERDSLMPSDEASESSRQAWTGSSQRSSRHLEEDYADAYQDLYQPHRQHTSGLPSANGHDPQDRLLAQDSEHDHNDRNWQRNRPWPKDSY
How it was run: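 Whole-cell voltage clamp of acutely trypsin-dissociated rat SCG neurons, with TEA/choline external solution (2 mM Ca2+) and Cs-methanesulfonate pipette solution. Currents evoked by 150 ms steps to +20 mV from −65 to −55 mV holding, every 40 s; compounds applied locally, effect as % inhibition of control amplitude.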

[3] = system: DBA/2 mice; assay: animal or person; assay type: in vivo; settings: for responders at 30 mg/kg / responders at 10 mg/kg / responders at 100 mg/kg: Mus musculus, iv, read-out: Number of Mice Protected from Tonic Convulsions
Method: Audiogenic Seizure Model in DBA/2 Mice
In Vivo Biological Protocol
A compound of the present invention was dissolved in water using 10% (weight/volume) Emulphor (GAF Cop., Wayne N.J. surfactant. Substances were administered by intravenous injection the retro-orbital venous sinus. […] All the male mice, 3-4 weeks old were obtained from Jackson Laboratories Bar Harbour, Me. Immediately before anticonvulsant testing, mice were placed upon a wire mesh, 4 inches square suspended from a steel rod. The square was slowly inverted through 180 degree and mice observed for 30 seconds. Any mouse falling from the wire mesh was scored as ataxia.
Mice were placed into an enclosed acrylic plastic chamber (21 cm in height, approximately 30 cm diameter) with a high-frequency speaker (4 cm diameter) in the center of the top lid. An audio signal generator (Protek model B-810) was used to produce a continuous sinusoidal tone that was swept linearly in frequency between 8 kHz and 16 kHz once each 10 msec. The average sound pressure level (SPL) during stimulation was approximately 100 dB at the floor of the chamber. Mice were placed within the chamber and allowed to acclimatize for 1 minute. DBA/2 mice in the vehicle-treated group responded to the sound stimulus (applied until tonic extension occurred, or for a maximum of 60 sec) with a characteristic seizure sequence consisting of wild running followed by clonic seizures, and later by tonic extension, and finally by respiratory arrest and death in 80% or more of the mice. In vehicle-treated mice, the entire sequence of seizures to respiratory arrest lasts approximately 15-20 seconds.
The incidence of all the seizure phases in the drug-treated and vehicle-treated mice was recorded, and the occurrence of tonic seizures were used for calculating anticonvulsant ED50 values by probit analysis. Mice were used only once for testing at each time and dose point.

| Compound | inhibition at 1 µM [1] [%] | inhibition at 10 µM [1] [%] | IC50 [1] [nM] | inhibition at 10 µM ([2]; 10 μM) [%] | responders at 30 mg/kg ([3]; 0.25 h) [%] | IC50 [2] [nM] | other results |
| --- | --- | --- | --- | --- | --- | --- | --- |
| CC(C)C[C@H](NC(=O)N1CCCCCC1)C(=O)N[C@@H](Cc1ccc(OCc2ccccc2)cc1)C(=O)NCCCn1ccnc1 [Example 237, [S-(R*,R*)]-Azepane-1-carboxylic acid {(1-[2-(4-benzyloxy phenyl)-1-(3-imidazol-1-yl-propylcarbamoyl)-ethylcarbamoyl]-3-methyl-butyl}-amide] | 52 | 93 | 960 | 79 | 0 |  |  |
| CC(C)C[C@H](NC(=O)N1CCCCCC1)C(=O)N[C@@H](Cc1ccc(OCc2ccccc2)cc1)C(=O)OC(C)(C)C [Example 1] | 71 | 95 | 350 | 68 | 100 | 1270 | responders at 10 mg/kg ([3]; 0.25 h): 0%; responders at 100 mg/kg ([3]; 0.25 h): 100%; responders at 100 mg/kg ([3]; 0.5 h): 100%; responders at 10 mg/kg ([3]; 0.75 h): 0%; responders at 100 mg/kg ([3]; 1 h): 0% |
| CC(C)(C)OC(=O)[C@H](Cc1ccc(OCc2ccccc2)cc1)NC(=O)[C@H](Cc1ccccc1)NC(=O)N1CCCCCC1 [Example 16] | 44 | 92 | 1100 | 19 |  |  |  |
| CC(C)(C)OC(=O)[C@H](Cc1ccc(OCc2ccccc2)cc1)NC(=O)CNC(=O)N1CCCCCC1 (stereo in doubt) [Example 8, [S-(R*,R*)]-2-{2-[(Azepane-1-carbonyl)-amino]-acetylamino}-3-(4-benzyloxy-phenyl)-propionic acid tert-butyl ester] |  |  | 2400 |  |  | 1920 | Inhibition of Calcium Flux in IMR-32 Cells % Inhibition at 1 μM ([1]; 1 μM): 29%; Inhibition of Calcium Flux in IMR-32 Cells % Inhibition at 10 μM ([1]; 10 μM): 86%; Inhibition of N-type Ca2+ Current, % Inhibition at 10 μM ([2]; 10 μM): 86%; Number of Mice Protected from Tonic Convulsions ([3]; 30 mg/Kg iv, 15 min post treatment): 4/5 |
| CC(C)C[C@H](NC(=O)N1CCCCCC1)C(=O)N[C@@H](Cc1ccc(C#CC2(O)CCCCC2)cc1)C(=O)NC(C)(C)C [Example 138, [S-(R*,R*)]-Azepane-1-carboxylic acid (1-({-tert-butylcarbamoyl-2-[4-(1-hydroxy-cyclohexylethynyl)-phenyl]-ethylcarbamoyl}-3-methyl-butyl)-amide] | 23 | 67 |  | 17 |  |  |  |
| CC(C)C[C@H](NC(=O)N1CCCCCC1)C(=O)N[C@@H](Cc1ccc(OCc2ccccn2)cc1)C(=O)OC(C)(C)C [Example 25, [S-(R*,R*)]-2-{2-[(Azepane-1-carbonyl)-amino]-4-methyl-pentanoylamino}-3-[4-(pyridin-2-ylmethoxy)-phenyl]-propionic acid tert-butyl ester] | 32 | 82 | 2090 | 66 | 100 | 5330 |  |
| CC(C)C[C@H](NC(=O)N1CCCCCC1)C(=O)N[C@@H](Cc1ccc(OCc2ccncc2)cc1)C(=O)OC(C)(C)C [Example 26, [S-(R*,R*)]-2-{2-[(Azepane-1-carbonyl)-amino]-4-methyl-pentanoylamino}-3-[4-(pyridin-4-ylmethoxy)-phenyl]-propionic acid tert-butyl ester] | 44 | 84 | 1600 | 58 |  |  | responders at 10 mg/kg ([3]; 0.25 h): 100% |
| CC(C)C[C@H](NC(=O)N1CCCCCC1)C(=O)N[C@@H](Cc1ccc(C=Cc2ccccc2)cc1)C(=O)NC(C)(C)C [Example 141, [S-(R*,R*)]-Azepane-1-carboxylic acid {1-[1-tert-butylcarbamoyl-2-(4-styryl-phenyl)-ethylcarbamoyl]-3-methyl-butyl}-amide] | 37 | 66 |  | 39 |  |  |  |
| CC(C)C[C@H](NC(=O)N1CCCCCC1)C(=O)N[C@@H](Cc1ccc(OCc2ccccc2)cc1)C(N)=O [Example 21, [S-(R*,R*)]-Azepane-1-carboxylic acid {1-[2-(4-benzyloxy-phenyl)-1-carbamoyl-ethylcarbamoyl]-3-methyl-butyl}-amide] | 26 | 83 | 2700 | 45 |  |  | responders at 30 mg/kg ([3]; 0.75 h): 0% |
